Measurements: patent US20240417688A1, “METHODS AND SYSTEMS FOR ADIPOCYTES DIFFERENTIATION” (priority 2021, published 2024)

System: Mesenchymal Stem cells (MSCs)
Test: Oil Red O staining and quantification of adipogenic differentiation of MSCs in 2D culture
Assay type: cell-based
Details: FIG. 3; plate reader
Procedure: Palmitoleic, erusic, elaidic, and oleic acids are diluted to 20 mM concentration in ethanol absolute. Each FFA is prepared separately, following which, all […] FFAs are mixed together at equal volumes to create the FFA stock mix.
The stock mix is then added to cell growth medium at a concentration of 100 uM per FFA (dilution of 1:50 from stock mix).
Food grade sunflower lecithin is suspended in PBS 1× at 50 mg/ml concentration, and the suspension is sonicated at medium speed for 1-2 min, to then reach a homogenized solution then filtered through a 0.22 μm filter. The lecithin emulsion is added to cell growth medium at a concentration of 1 mg/ml (dilution of 1:50 from stock solution).
The two mediums were refreshed every 3 days and Oil red O quantification was performed on day 8 of contact.
It is noted, that high cell density can cause a curling effect that produced a cell aggregate, reveling underlying cells. A. (negative control culture)—The cell aggregate falsely stained by ORO (A2); the aggregation reviles few cells on the surface of the well (A1). B. (4FFAs+Insulin treatment) Cells produce a sheet that detaches from the surface (B1), with underlying differentiating cells (B3). C. […]
Turning now to FIG. 3, where Oil Red O (ORO) quantification was carried out after extraction using 2-propanol. ORO was extracted and quantified by absorption reading in a plate reader at 492 nm. […]

insulin
Oil Red O (ORO) quantity, absorption at 492 nm after 2-propanol extraction, versus control: no statistical difference than control
